Three molecules from patent publication US10351856B2, “Ribonucleic acid aptamer having inhibitory effect on non-small cell lung cancer and pharmaceutical composition comprising same” (BIOPHARMAGEN CORP., FANGZHOU SUZHOU, priority 2016, dated 2019) can be followed below.

Values joined by “and” are separate entries in the source; they are usually repeats but may differ in a detail not shown here. Identical values can stand only once. “Also recorded” adds a separate entry of the source.

For data set [1], the system named is human non-small cell lung cancer H460 transplanted tumor. Kind of data set: RA16-EPI adduct or epirubicin on tumor growth in H460 subcutaneous tumor-bearing mice. The note with it: 3 times, day 16. The format is in vivo. The protocol:
In order to clarify the effect of the nucleic acid aptamer RA16-EPI adduct on the growth of human non-small cell lung cancer solid tumors, the inventors used model mice that were injected with human non-small cell lung cancer H460 cells and constructed with a subcutaneous tumor as experimental subjects (initial mean tumor volume was 200-300 mm^3). They were randomly divided into 6 groups, each of which had 5 tumor-bearing mice. One group served as a negative control group (0.1 ml of normal saline was injected intravenously on the 0th, 7th, and 14th days respectively); and the other 5 groups served as treatment groups (different doses of drugs were given every week, and the administration manners and doses are shown in Table 2.). Every 2 days, the tumor diameter of the tumor-bearing mice was measured, the tumor volume was calculated, and the tumor growth curves were drawn (FIG. 5). On the 16th day, the tumor was extracted, the tumor was weighed, and the tumor growth inhibition rate was calculated.

Data set [2] has as its system human non-small cell lung cancer cell line H460. The experiment in a line: CCK-8 relative viability / proliferation of H460 cells. It counts as cell-based. The conditions noted are these: for effect on proliferation of H460 cells: CCK-8, 48 h, 300 nM or 0-400 nM. The procedure:
(§1) In order to clarify the effect of the nucleic acid aptamer RA16 on the proliferation of human non-small cell lung cancer cell lines, the inventors used the CCK-8 method (CCK-8 kit purchased from Dojindo Molecular Technologies, Inc.) to detect the relative viability of human non-small cell lung cancer cell line H460 (ATCC) and other tumor cells (human cervical cancer Hela cells) (the initial cell concentration was 2×10^4 cells/ml) after 48 h of treatment by 300 nM RA16. The same treatment was performed as the control with the same concentration of SCAP obtained by randomly shuffling the RA16.
Further, CCK-8 assay was used to detect the growth conditions of human non-small cell lung cancer H460 cells and human cervical cancer Hela cells (the concentration of test cells was about 2×10^4/ml) after 48 hours of treatment with different concentrations of nucleic acid aptamer RA16 and SCAP (concentration 0, 5, 10, 50, 100, 150, 200, 300, 400 nM respectively) with randomly srambled RA16, and after three independent experiments, the results are shown in FIG. 2A-B.
In order to clarify the effect of the nucleic acid aptamer RA16-EPI adduct on the proliferation of human non-small cell lung cancer cell lines, the inventors used the CCK-8 method to detect the relative viability of human non-small cell lung cancer cell line H460 and other tumor cell lines (human cervical cancer Hela cells) (initial cell concentration was 2×10^4 cells/ml) after 48 h of treatment by 375 nM RA16-EPI.

The test system of data set [3] is human cervical cancer Hela cells. Kind of data set: CCK-8 relative viability / proliferation of Hela cells. The format is cell-based. The conditions noted are these: CCK-8, 48 h, 300 nM or 0-400 nM. The protocol:
as §1
Further, CCK-8 assay was used to detect the growth conditions of human non-small cell lung cancer H460 cells and human cervical cancer Hela cells (the concentration of test cells was about 2×10^4/ml) after 48 hours of treatment with different concentrations of nucleic acid aptamer RA16 and SCAP (concentration 0, 5, 10, 50, 100, 150, 200, 300, 400 nM respectively) with randomly srambled RA16, and after three independent experiments, the results are shown in FIG. 2A-B. […]

Data set [4] deals with human non-small cell lung cancer H460 transplanted tumor. Kind of data set: RA16 on tumor growth in H460 subcutaneous tumor-bearing mice. It counts as in vivo. The conditions noted are these: 2 nmol i.v. on days 0, 3, 5, 7, 9; tumor weighed on day 16. The protocol:
In order to clarify the effect of the nucleic acid aptamer RA16 on the growth of human non-small cell lung cancer solid tumors, the inventors used model mice that were injected with human non-small cell lung cancer H460 cells and constructed with a subcutaneous tumor as experimental subjects (initial mean tumor volume was 100 mm^3 or so). They were randomly divided into two groups, each of which had 6 tumor-bearing mice. One group served as a negative control group (0.1 ml of normal saline was injected intravenously on the 0th, 3rd, 5th, 7th, and 9th days respectively); and the other was an RA16 treatment group (2 nmol of RA16 was injected intravenously the 0th, 3rd, 5th, 7th, and 9th days respectively). Every other day, the tumor diameter of the tumor-bearing mice was measured, the tumor volume was calculated, and the tumor growth curves were drawn (FIG. 4). On the 16th day, the tumor was extracted, the tumor was weighed, and the tumor growth inhibition rate was calculated.

Where [5] appears, read: high dose, EPI 1.5 mg/kg/week i.v.
The mark [6] stands for this setting: low dose, EPI 0.5 mg/kg/week i.v.

On to `COc1cccc2c1C(=O)c1c(O)c3c(c(O)c1C2=O)C[C@@](O)(C(=O)CO)C[C@@H]3O[C@H]1C[C@H](N)[C@@H](O)[C@H](C)O1` [Epirubicin], for which the “Inhibition Rate (%) of tumor growth” value in data set [1] (setting [5]) was 47.13%; in data set [1] (high dose, EPI 1.5 mg/kg/week i.v., listed as EPI), 47.13%; in data set [1] (setting [6]), 28.76%. In addition, the entries for the “Tumor Weight” value in data set [1] (setting [5]) and in data set [1] (setting [6]) were 1.97 ± 0.38 g and 2.65 ± 0.21 g, respectively.

B1: RA16: ribonucleic acid aptamer of SEQ ID NO: 1, prepared by in vitro transcription, binds human non-small cell lung cancer (nucleic acid)
chain: GGGAGAGAACAAUGACCUGCGGUGCCAAGCCGUCGGGUUAUGUUGAUCUCCACAAGGACGAGUGCAUUGCAUCACGUCAGUAG
modifications: listed as RNA, chemistry not fully specified
Regarding B1, the “effect on proliferation of H460 cells” value in data set [2] is “obviously inhibit the proliferation”. Further, in data set [2] (CCK-8, 48 hours, 0-400 nM, read-out: IC50 of inhibition of proliferation of H460 cells), the IC50 amounted to 117 nM. Further, the “effect on human cervical cancer Hela cells” value in data set [3] is “no inhibitory effect; also recorded: no obvious effects; also recorded: no significant effect”. For the same molecule, in data set [4], the “Inhibition Rate (%) of tumor growth” value was 54.3% and 54.26%.

B2: SCAP: nucleic acid obtained by randomly shuffling the sequence of RA16, SEQ ID NO: 2, control (nucleic acid)
chain: GGGAGAGAACAAUGACCUGUUGCAAGCGCGUCGGUAAUUCGCGCACAUGGCAGGCUUCUGAGUGCAUUGCAUCACGUCAGUAG
modifications: listed as RNA, chemistry not given here
Take B2: in data set [2], the “effect on proliferation of H460 cells” value is given as “little effect”.
